Reference: patent publication US20160333404A1, “METHODS FOR TREATING HCV” (priority 2012, published 2016)

Experiments:
miR-122 [1] = experiment: Serum miR-122 expression by microRNA real-time PCR, Example 2, 3 days polymerase inhibitor monotherapy then with P/R; type: in vivo, human; details: treatment-naïve GT1 subjects, day 3 vs day 1
Experimental: Sample preparation and microRNA real-time PCR. Serum samples were collected at baseline (“BASE”), week 2 on-treatment (“W2”), week 10 on-treatment (“W10”), and 8 weeks after completing the 12 week regimen (“Post Week 8”) and frozen until analysis. Total RNA was extracted from serum using the Qiagen miRNeasy® Mini Kit. Serum was thawed on ice and centrifuged at 3000×g for 5 min in a 4° C. microcentrifuge. An aliquot of 200 μL of serum per sample was transferred to a new microcentrifuge tube and 750 μl of a Qiazol mixture containing 1.25 μg/mL of MS2 bacteriophage RNA was added to the serum. The tube was mixed and incubated for 5 min followed by the addition of 200 μL chloroform. […]
15 μl RNA was reverse transcribed in 75 μl reactions using the miRCURY LNA™ Universal RT microRNA PCR, Polyadenylation and cDNA synthesis kit (Exiqon). cDNA was diluted 50× and assayed in 10 ul PCR reactions according to the protocol for miRCURY LNA™ Universal RT microRNA PCR; each microRNA was assayed once by qPCR on the microRNA Ready-to-Use PCR, Human panel I and panel II. […] The amplification curves were analyzed using the Roche LC software, both for determination of Cp (by the 2nd derivative method) and for melting curve analysis. All data was normalized to the average of assays detected in all samples (average—assay Cp). […]

miR-122 [2] = experiment: Serum miR-122 levels with or without RBV, genotype 2 and 3 patients that achieved SVR (FIG. 7); type: in vivo, human; details: HCV 2 and 3 subjects who achieve SVR on Compound 1/r with Compound 3; presence n=13, absence n=9
Excerpt: Sample preparation and microRNA real-time PCR. Serum samples were collected at baseline (“Baseline”), day 3 on-treatment (“Day 3”), week 2 on-treatment (“Week 2”), week 10 on-treatment (“Week 10”), and 8 weeks after completing the 12 week regimen (“PT Week 8”) and frozen until analysis. Samples were processed as described in Example 1.
In HCV 2 and 3 subjects who achieve SVR, miR-122 levels are not affected by the presence (n=13) or absence (n=9) of RBV.

**Q.** For COc1c(-c2ccc3cc(NS(C)(=O)=O)ccc3c2)cc(-n2ccc(=O)[nH]c2=O)cc1C(C)(C)C [Compound 2, N-(6-(3-tert-butyl-5-(2,4-dioxo-3,4-dihydropyrimidin-1(2H)-yl)-2-methoxyphenyl)naphthalen-2-yl)methanesulfonamide], which “Levels of miR-122 after three days of polymerase inhibitor alone” value (miR-122 [1]) is on record?
**A.** decreased

**Q.** NC(=O)c1ncn([C@@H]2O[C@H](CO)[C@@H](O)[C@H]2O)n1 [RBV, ribavirin] was tested. Which “effect of presence or absence of RBV on miR-122 levels” value (miR-122 [2]) did it give?
**A.** not affected

**Q.** COc1c(/C=C/c2ccc(NS(C)(=O)=O)cc2)cc(-n2ccc(=O)[nH]c2=O)cc1C(C)(C)C [Compound 4, (E)-N-(4-(3-tert-butyl-5-(2,4-dioxo-3,4-dihydropyrimidin-1(2H)-yl)-2-methoxystyryl)phenyl)methanesulfonamide] was tested. Which “Levels of miR-122 after three days of polymerase inhibitor alone” value (miR-122 [1]) did it give?
**A.** decreased
